pIC50: −log10 of the molar value. Where a name gives a salt, the structure may show the parent alone.

Usually pIC50 stands for the negative decadic logarithm of the IC50, by convention in mol/L. Low values mean a high IC50, high ones a low IC50.

EZH2, sequence (Q15910 other isoform, or with tags, fused parts or gaps isoform Q15910-2): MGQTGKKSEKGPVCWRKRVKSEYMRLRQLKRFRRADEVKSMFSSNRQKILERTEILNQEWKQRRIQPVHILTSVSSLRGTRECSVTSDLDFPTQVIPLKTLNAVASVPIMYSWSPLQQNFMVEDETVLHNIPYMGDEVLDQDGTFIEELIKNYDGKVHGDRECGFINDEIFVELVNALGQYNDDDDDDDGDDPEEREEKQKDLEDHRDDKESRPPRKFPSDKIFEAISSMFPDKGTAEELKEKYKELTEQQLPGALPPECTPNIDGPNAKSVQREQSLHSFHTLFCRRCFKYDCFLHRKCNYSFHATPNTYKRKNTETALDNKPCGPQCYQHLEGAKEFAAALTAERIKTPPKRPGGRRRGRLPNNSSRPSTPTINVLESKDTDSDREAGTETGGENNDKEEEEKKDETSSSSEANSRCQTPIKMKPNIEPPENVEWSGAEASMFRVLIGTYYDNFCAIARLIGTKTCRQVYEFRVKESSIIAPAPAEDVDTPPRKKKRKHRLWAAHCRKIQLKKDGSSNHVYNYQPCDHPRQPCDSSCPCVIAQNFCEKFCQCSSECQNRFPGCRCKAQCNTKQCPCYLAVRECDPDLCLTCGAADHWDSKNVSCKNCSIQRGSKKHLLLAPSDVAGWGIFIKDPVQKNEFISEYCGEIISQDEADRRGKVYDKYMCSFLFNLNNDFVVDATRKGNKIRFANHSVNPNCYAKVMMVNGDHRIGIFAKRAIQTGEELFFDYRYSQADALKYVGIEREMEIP
EZH2, sequence (O75530 2-441 partner): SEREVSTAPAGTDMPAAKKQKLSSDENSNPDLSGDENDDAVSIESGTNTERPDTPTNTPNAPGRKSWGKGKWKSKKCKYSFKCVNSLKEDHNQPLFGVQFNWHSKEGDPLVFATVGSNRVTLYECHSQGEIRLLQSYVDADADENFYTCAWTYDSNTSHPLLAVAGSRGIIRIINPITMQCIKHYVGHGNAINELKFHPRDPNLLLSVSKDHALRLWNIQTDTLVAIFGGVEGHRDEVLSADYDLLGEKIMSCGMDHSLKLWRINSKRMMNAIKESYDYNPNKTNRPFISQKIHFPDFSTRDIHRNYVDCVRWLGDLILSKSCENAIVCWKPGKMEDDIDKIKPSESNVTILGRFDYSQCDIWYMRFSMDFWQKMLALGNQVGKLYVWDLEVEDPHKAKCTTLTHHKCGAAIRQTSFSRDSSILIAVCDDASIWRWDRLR
EZH2, sequence (Q15022 2-739 partner): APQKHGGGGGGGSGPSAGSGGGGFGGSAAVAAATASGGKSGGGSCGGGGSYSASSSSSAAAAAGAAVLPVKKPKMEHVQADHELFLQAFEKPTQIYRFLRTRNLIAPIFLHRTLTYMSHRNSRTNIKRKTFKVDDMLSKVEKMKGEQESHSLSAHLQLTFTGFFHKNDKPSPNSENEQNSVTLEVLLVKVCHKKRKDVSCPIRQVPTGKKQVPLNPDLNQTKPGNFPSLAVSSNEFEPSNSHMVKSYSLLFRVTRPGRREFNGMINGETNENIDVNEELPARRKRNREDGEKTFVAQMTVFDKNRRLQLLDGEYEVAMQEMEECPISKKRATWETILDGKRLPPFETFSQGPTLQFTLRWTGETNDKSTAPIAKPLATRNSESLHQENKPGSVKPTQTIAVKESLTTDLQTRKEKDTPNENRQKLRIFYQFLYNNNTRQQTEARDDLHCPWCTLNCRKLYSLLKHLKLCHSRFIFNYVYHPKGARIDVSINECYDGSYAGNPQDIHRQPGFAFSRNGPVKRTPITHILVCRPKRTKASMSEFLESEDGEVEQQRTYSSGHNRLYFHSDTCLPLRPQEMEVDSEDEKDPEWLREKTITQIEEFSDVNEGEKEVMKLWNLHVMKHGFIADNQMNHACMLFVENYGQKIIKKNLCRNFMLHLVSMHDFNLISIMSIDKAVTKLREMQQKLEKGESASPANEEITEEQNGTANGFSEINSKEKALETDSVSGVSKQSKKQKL
EZH2, sequence (Q09028 2-425 partner): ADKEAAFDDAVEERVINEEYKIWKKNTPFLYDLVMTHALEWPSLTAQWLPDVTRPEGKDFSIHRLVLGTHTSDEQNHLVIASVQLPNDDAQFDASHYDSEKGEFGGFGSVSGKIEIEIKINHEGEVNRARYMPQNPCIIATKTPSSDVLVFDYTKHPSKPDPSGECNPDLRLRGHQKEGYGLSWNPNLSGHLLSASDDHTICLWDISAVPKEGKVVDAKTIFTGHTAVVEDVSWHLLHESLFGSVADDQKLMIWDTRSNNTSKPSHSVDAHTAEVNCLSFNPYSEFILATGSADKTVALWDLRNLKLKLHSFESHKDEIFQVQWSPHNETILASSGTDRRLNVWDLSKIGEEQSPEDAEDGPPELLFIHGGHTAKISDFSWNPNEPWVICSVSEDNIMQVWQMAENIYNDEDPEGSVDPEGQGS
EZH2, sequence (Q6ZN18 whole entry partner): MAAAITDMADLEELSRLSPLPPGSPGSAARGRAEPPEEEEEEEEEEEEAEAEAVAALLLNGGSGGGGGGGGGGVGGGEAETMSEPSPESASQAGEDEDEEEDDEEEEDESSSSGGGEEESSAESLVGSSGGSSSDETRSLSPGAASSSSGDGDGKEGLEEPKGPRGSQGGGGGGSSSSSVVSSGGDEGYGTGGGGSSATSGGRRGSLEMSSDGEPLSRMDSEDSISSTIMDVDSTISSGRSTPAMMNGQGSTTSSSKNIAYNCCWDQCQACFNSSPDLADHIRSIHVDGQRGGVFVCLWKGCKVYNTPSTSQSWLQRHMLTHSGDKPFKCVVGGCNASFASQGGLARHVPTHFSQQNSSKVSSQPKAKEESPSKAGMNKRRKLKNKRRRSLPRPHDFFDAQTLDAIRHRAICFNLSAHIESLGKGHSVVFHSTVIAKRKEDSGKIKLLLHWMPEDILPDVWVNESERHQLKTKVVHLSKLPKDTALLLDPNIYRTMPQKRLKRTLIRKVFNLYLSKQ

This experiment addresses EZH2 (Homo sapiens (Human), UniProt Q15910). Description: Test method for EZH2 enzyme activity. The experiment is classed as biochemical. The settings on record: H3K27(21-44) and [3H]-SAM. As to the method:
The compounds were dissolved in DMSO, formulated into 10 mM solutions and serially diluted with DMSO to obtain 100-fold the final concentration. 200 nL of the solutions of the compounds was transferred to a 384-well plate (Perkin Elmer, Cat. No. 6007299) by using Echo550. EZH2 (BPS, Cat. No. 51004) was diluted with 1×assay buffer (50 mM Tris-HCl 9.0, 0.01% Tween-20, 1 mM DTT) to 2-fold the final concentration (EZH2: 3 nM). A mixed solution of H3K27(21-44) and [3H]-SAM (PerkinElmer, Lot. No. 2146246) (H3K27(21-44): 200 nM, [3H]-SAM: 100 nM) was formulated. The EZH2 diluted solution was taken and added to the 384-well plate at 10 μL/well (10 μL of 1×assay buffer was added in the control group). The plate was sealed and then incubated at room temperature for 15 minutes. 10 μL of the mixed solution of H3K27 (21-44) and [3H]-SAM was added to each well. The plate was sealed and then incubated at room temperature for 60 minutes. 50 μM of SAM (Sigma, Cat. No. A7007) was formulated at low temperature and added to the 384-well plate at 10 μL/well. The sample was taken at 25 μL/well, transferred to a flashplate and incubated at room temperature for at least 1 hour. The flashplate was washed 3 times with a plate washing liquid (dH2O+0.1% Tween-20) and read by using Microbeta. The inhibition rate was calculated in Excel according to: inhibition rate (%)=(maximum valuepositive control−detection signal value)/(maximum valuepositive control−minimum valuenegative control)*100, and IC50 values were fitted by using XL-Fit.
Compound `CO[C@H]1C[C@H](NC2CCC(C3(C)Oc4c(Cl)cc(C(=O)NCc5c(SC)cc(C)[nH]c5=O)c(C)c4O3)CC2)C1` (single isomer, unassigned) [Compound 9, isomer 1, 7-chloro-2-(4-((trans-3-methoxycyclobutyl)amino)cyclohexyl)-2,4-dimethyl-N-((6-methyl-4-(methylthio)-2-oxo-1,2-dihydropyridin-3-yl)methyl)benzo[d][1,3]dioxole-5-carboxamide] had a pIC50 of 9.09.

`CSc1cc(C)[nH]c(=O)c1CNC(=O)c1cc(Cl)c2c(c1C)OC(C)([C@H]1CC[C@@H](NC(=O)C3CC(F)(F)C3)CC1)O2` (single isomer, unassigned) [Compound 6, isomer 2, 7-chloro-2-(4-(3,3-difluorocyclobutane-1-carboxamido)cyclohexyl)-2,4-dimethyl-N-((6-methyl-4-(methylthio)-2-oxo-1,2-dihydropyridin-3-yl)methyl)benzo[d][1,3]dioxole-5-carboxamide] gave a pIC50 of 9.19.

Regarding `CSc1cc(C)[nH]c(=O)c1CNC(=O)c1cc(Cl)c2c(c1C)OC(C)(C1CCC(N[C@H]3C[C@H](O)C3)CC1)O2` (single isomer, unassigned) [Compound 45, isomer 2, 7-chloro-2-(4-((trans-3-hydroxycyclobutyl)amino)cyclohexyl)-2,4-dimethyl-N-((6-methyl-4-(methylthio)-2-oxo-1,2-dihydropyridin-3-yl)methyl)benzo[d][1,3]dioxole-5-carboxamide], the pIC50 is 9.46.

Turning to `CSc1cc(C)[nH]c(=O)c1CNC(=O)c1cc(Cl)c2c(c1C)OC(C)(C1CCC(NC3COC3)CC1)O2` (single isomer, unassigned) [Compound 61, isomer 1, 7-chloro-2,4-dimethyl-N-((6-methyl-4-(methylthio)-2-oxo-1,2-dihydropyridin-3-yl)methyl)-2-(4-(oxetan-3-ylamino)cyclohexyl)benzo[d][1,3]dioxole-5-carboxamide], the pIC50 is 9.28.

Turning to `CSc1cc(C)[nH]c(=O)c1CNC(=O)c1cc(Cl)c2c(c1C)OC(C)(C1CCN(C(=O)C3CC(F)(F)C3)CC1)O2` (single isomer, unassigned; isomer 1) [Compound 11, isomer 1, 7-chloro-2-(1-(3,3-difluorocyclobutane-1-carbonyl)piperidin-4-yl)-2,4-dimethyl-N-((6-methyl-4-(methylthio)-2-oxo-1,2-dihydropyridin-3-yl)methyl)benzo[d][1,3]dioxole-5-carboxamide], the pIC50 is 9.14.

With `CSc1cc(C)[nH]c(=O)c1CNC(=O)c1cc(Cl)c2c(c1C)OC(C)([C@H]1CC[C@@H](C(=O)N3CC(F)(F)C3)CC1)O2` (single isomer, unassigned; isomer 2) [Compound 47, isomer 2, 7-chloro-2-(4-(3,3-difluoroazetidine-1-carbonyl)cyclohexyl)-2,4-dimethyl-N-(di-deuterated(6-methyl-4-(methylthio)-2-oxo-1,2-dihydropyridin-3-yl)di-deuterated-methyl)benzo[d][1,3]dioxole-5-carboxamide], the negative logarithm of the IC50 (pIC50) is 9.04.

`[2H]C([2H])(NC(=O)c1cc(Cl)c2c(c1C)OC(C)([C@H]1CC[C@@H](CN3CCOCC3)CC1)O2)c1c(SC)cc(C)[nH]c1=O` (single isomer, unassigned) [Compound 57, isomer 2, 7-chloro-2,4-dimethyl-N-((6-methyl-4-(methylthio)-2-oxo-1,2-dihydropyridin-3-yl)methyl-d2)-2-(4-(morpholinomethyl)cyclohexyl)benzo[d][1,3]dioxole-5-carboxamide]: the pIC50 is 9.31.

Consider `CSc1cc(C)[nH]c(=O)c1CNC(=O)c1cc(Cl)c2c(c1C)OC(C)(C1CCN(CC3(F)CC3)CC1)O2` (stereo not drawn) [Compound 32, 7-chloro-2-(1-((1-fluorocyclopropyl)methyl)piperidin-4-yl)-2,4-dimethyl-N-((6-methyl-4-(methylthio)-2-oxo-1,2-dihydropyridin-3-yl)methyl)benzo[d][1,3]dioxole-5-carboxamide], for which the pIC50 was 9.24.

With `CSc1cc(C)[nH]c(=O)c1CNC(=O)c1cc(Cl)c2c(c1C)OC(C)([C@H]1CC[C@H](CNC3CC(F)(F)C3)CC1)O2` (single isomer, unassigned) [Compound 40, isomer 2, 7-chloro-2-(4-(((3,3-difluorocyclobutyl)amino)methyl)cyclohexyl)-2,4-dimethyl-N-((6-methyl-4-(methylthio)-2-oxo-1,2-dihydropyridin-3-yl)methyl)benzo[d][1,3]dioxole-5-carboxamide], the pIC50 was 9.29.

The compound `CSc1cc(C)[nH]c(=O)c1CNC(=O)c1cc(Cl)c2c(c1C)OC(C)([C@H]1CC[C@@H](N3CC4CN(C)CC4C3)CC1)O2` (single isomer, unassigned) [Compound 42, isomer 1, 7-chloro-2,4-dimethyl-N-((6-methyl-4-(methylthio)-2-oxo-1,2-dihydropyridin-3-yl)methyl)-2-(4-(5-methylhexahydropyrrolo[3,4-c]pyrrol-2(1H)-yl)cyclohexyl)benzo[d][1,3]dioxole-5-carboxamide] had a pIC50 of 9.47.

The compound `CSc1cc(C)[nH]c(=O)c1CNC(=O)c1cc(Cl)c2c(c1C)OC(C)(C1CCN(C(=O)C3CC3)CC1)O2` (single isomer, unassigned) [Compound 7, isomer 1, 7-chloro-2-(1-(cyclopropanecarbonyl)piperidin-4-yl)-2,4-dimethyl-N-((6-methyl-4-(methylthio)-2-oxo-1,2-dihydropyridin-3-yl)methyl)benzo[d][1,3]dioxole-5-carboxamide] gave a pIC50 of 9.28.

As for `CSc1cc(C)[nH]c(=O)c1CNC(=O)c1cc(Cl)c2c(c1C)OC(C)([C@H]1CC[C@@H](NC(=O)C3CC(F)(F)C3)CC1)O2` (single isomer, unassigned) [Compound 6, isomer 1, 7-chloro-2-(4-(3,3-difluorocyclobutane-1-carboxamido)cyclohexyl)-2,4-dimethyl-N-((6-methyl-4-(methylthio)-2-oxo-1,2-dihydropyridin-3-yl)methyl)benzo[d][1,3]dioxole-5-carboxamide], the pIC50 is 9.28.

`CSc1cc(C)[nH]c(=O)c1CNC(=O)c1cc(Cl)c2c(c1C)OC(C)([C@H]1CC[C@@H](NCC3(C)COC3)CC1)O2` (single isomer, unassigned) [Compound 3, isomer 1, 7-chloro-2,4-dimethyl-N-((6-methyl-4-(methylthio)-2-oxo-1,2-dihydropyridin-3-yl)methyl)-2-(4-(((3-methyloxetan-3-yl)methyl)amino)cyclohexyl)benzo[d][1,3]dioxole-5-carboxamide trifluoroacetate] showed a pIC50 of 9.19.

For the compound `CSc1cc(C)[nH]c(=O)c1CNC(=O)c1cc(Cl)c2c(c1C)OC(C)(C1CCN(C(=O)c3csc(C)n3)CC1)O2` (stereo not drawn) [Compound 21, 7-chloro-2,4-dimethyl-N-((6-methyl-4-(methylthio)-2-oxo-1,2-dihydropyridin-3-yl)methyl)-2-(1-(2-methylthiazole-4-carbonyl)piperidin-4-yl)benzo[d][1,3]dioxole-5-carboxamide], the negative-log IC50 (pIC50) is 9.21.

As to `CSc1cc(C)[nH]c(=O)c1CNC(=O)c1cc(Cl)c2c(c1C)OC(C)([C@H]1CC[C@@H](NCC3(C)COC3)CC1)O2` (single isomer, unassigned) [Compound 3, isomer 2, 7-chloro-2,4-dimethyl-N-((6-methyl-4-(methylthio)-2-oxo-1,2-dihydropyridin-3-yl)methyl)-2-(4-(((3-methyloxetan-3-yl)methyl)amino)cyclohexyl)benzo[d][1,3]dioxole-5-carboxamide trifluoroacetate], the pIC50 was 9.29.

In the case of `CSc1cc(C)[nH]c(=O)c1CNC(=O)c1cc(Cl)c2c(c1C)OC(C)(C1CCC(N3CC(C#N)C3)CC1)O2` (single isomer, unassigned) [Compound 2, isomer 1, 7-chloro-2-(4-(3-cyanoazetidin-1-yl)cyclohexyl)-2,4-dimethyl-N-((6-methyl-4-(methylthio)-2-oxo-1,2-dihydropyridin-3-yl)methyl)benzo[d][1,3]dioxole-5-carboxamide], the pIC50 was 9.04.

`CSc1cc(C)[nH]c(=O)c1CNC(=O)c1cc(Cl)c2c(c1C)OC(C)(C1CCN(C(=O)C3CC(F)(F)C3)CC1)O2` (single isomer, unassigned) [Compound 5, isomer 1, 7-chloro-2-(1-(3,3-difluorocyclobutane-1-carbonyl)piperidin-4-yl)-2,4-dimethyl-N-((6-methyl-4-(methylthio)-2-oxo-1,2-dihydropyridin-3-yl)methyl)benzo[d][1,3]dioxole-5-carboxamide]: the pIC50 was 9.24.

`CSc1cc(C)[nH]c(=O)c1CNC(=O)c1cc(Cl)c2c(c1C)OC(C)(C1CCC(N3CCC4(CNC(=O)C4)C3)CC1)O2` (single isomer, unassigned) [Compound 18, isomer 2, 7-chloro-2,4-dimethyl-N-((6-methyl-4-(methylthio)-2-oxo-1,2-dihydropyridin-3-yl)methyl)-2-(4-(8-oxo-2,7-diazaspiro[4.4]nonan-2-yl)cyclohexyl)benzo[d][1,3]dioxole-5-carboxamide] showed a pIC50 of 9.11.
